Test results published in patent US6328728A, “Composition and method for enhancing electrotransport agent delivery” (Alza Corporation, priority 1997, dated 2001).
Where two headings read alike, the source gives them in different places.

Type: in vivo, male hairless guinea pigs
Settings: for average plasma calcitonin concentration (given in flux units): second hour/steady state
Description: This study was undertaken to assess the effect on the transdermal delivery rate by electrotransport of an agent such as calcitonin (sCT), a protein with an affinity for the surfactant Tween 20 at pH 6.5, by delivering the agent in the presence of Tween 20 from a donor gel.
A customized electrotransport system, and its reservoir matrices and contents were prepared as described below. A low level current of 100 μA cm^-2 was maintained throughout each test by a self contained power module (ALZA Corp., Palo Alto, Calif., Code #84166). The peptide agent salmon calcitonin (sCT, UCB-Bioproducts S.A., Chemin du Foriest, Allend, Belgium) was chosen for delivery by electrotransport. The protein calcitonin has a positive net charge at pH 6.5 and was therefore anodically driven from the positive electrode toward the negative electrode. Three gels were prepared for use with the electrotransport system. The anode gel provided the proper environment for the anodic electrochemical reaction. It was comprised of Bio-Rad resin beads (100-200 mesh, chloride form, Bio-Rad Laboratories, Richmond, Calif.) in 48 mM histidine buffer, pH 6.5, and 0.5% hydroxyethyl cellulose (HEC). The cathode gel provided the proper environment for the cathodic electrochemical reaction and completed the electrical circuit. It was comprised of an L-histidine buffered HEC gel, pH 2.9, and sodium chloride. The donor gel occupied a surface area of 2 cm^2 and was separated from the anode compartment by a 1 Kdalton molecular weight (MW) cut-off membrane (Millipore Corp., Bedford, Mass.). The donor gel was prepared by first mixing 48 mM histidine buffer, pH 6.5, with HEC, vortexing vigorously to completely dissolve the HEC and to ensure homogeneous polymerization of the gel. After a few minutes, either a 10% solution of Tween 20 (Pierce, Rockford, Ill.) or water was added in conjunction with a stock solution of calcitonin and gently mixed into the gel. The amounts of each component were calculated to produce a nominal concentration of 1 mM sCT in a 1% HEC gel of 1 mL volume (with or without Tween 20). The gel was slowly rotated and allowed to equilibrate overnight at 4° C. An aliquot of 275-295 μL of donor gel was weighed and placed in the donor reservoir of the electrotransport system immediately prior to beginning each experiment. The 3 gels were contained in 2 separate structures, with each gel compartment being a punched double-sided adhesive foam ring 0.081 cm (0.032") thick with an outside diameter of 3.2 cm (11/4") and an inside diameter of 1.6 cm (5/8"). The compartment ring containing the cathode gel was open on the skin side. The back side was covered by an electrode sandwich consisting of a 3.2 cm (11/4") diameter release liner cover, a 2.2 cm (13/15") diameter punch of electrical conducting adhesive tape, a 11 cm (41/2") silver wire that was slightly coiled at one end, with the coil placed at the center of the electrode leading out, and a 1.6 cm (5/8") diameter punch of AgCl PIB electrode film. The donor gel compartment was also open on the skin side, but the back side was covered by a 2.2 cm (13/15") diameter punch of a 1,000 Dalton MW cut-off membrane. The anode compartment was then stacked on top of the donor compartment and covered with an electrode sandwich identical to the cathode, except that the AgCl PIB electrode film was replaced with a 0.025 mm thick silver (Ag) foil (Johnson Mathey Catalog Co., Ward Hill, Mass.). Both the cathode and the donor compartments also included adhesive washers (In Vivo Metric, Healdsberg, Calif.) with an outside diameter of 3.2 cm (11/4") and an inside diameter of 1.6 cm (5/8") between the skin and the bottom of the compartment to improve skin adhesion. All components of the system were punched out in advance and assembled on the day of the experiment. […]

In the case of Salmon Calcitonin [reference compound], the “time to approach steady state calcitonin levels” value (active current groups (1) and (2)) is reported as “By the second hour”, the “average plasma calcitonin concentration (given in flux units)” value (active electrotransport 100 μA cm^-2, 1 mM sCT gel pH 6.5, with Tween 20 (group 1)) is reported as 5.4 μg sCT cm^-2 h^-1 and the “average plasma calcitonin concentration (given in flux units)” value (active electrotransport 100 μA cm^-2, 1 mM sCT gel pH 6.5, without Tween 20 (group 2)) is reported as 1.2 μg sCT cm^-2 h^-1. The “calcitonin plasma concentration, time course” value (active electrotransport groups (1) and (2), first hour) was “increased rapidly”, the “average plasma calcitonin concentration with Tween 20 relative to without Tween 20” value (active electrotransport, group 1 vs. group 2, second hour) was 3 fold and the “calcitonin plasma profiles, group (1) with Tween 20 vs group (2) without (statistical comparison)” value (active electrotransport, p<0.05, ANOVA) was “significantly different from one another”. For the same substance, the “calcitonin plasma levels, passive systems” value (passive delivery (control group 3, with and without Tween 20), first 4 hrs.) was “continued to lack significant calcitonin plasma levels” and the “calcitonin plasma levels, passive systems” value (passive delivery (no current), first hour) was “low and remained at or slightly above the limit of detection”.
